{
  "source": "patent US10724099B2",
  "about": "“Multiplex methods to assay mixed cell populations simultaneously” (The Broad Institute, Inc., priority 2012, dated 2020)",
  "key": {"PAK4": {"target": "T1, PAK4 (Homo sapiens, UniProt O96013)", "T1 construct": "purchased DiscoveRx scanEDGE panel (KinomeScan)", "assay": "DiscoveRx KinomeScan binding"}, "p38---alpha": {"target": "T2, p38---alpha (Homo sapiens, UniProt Q16539)", "T2 construct": "purchased DiscoveRx scanEDGE panel (KinomeScan)", "assay": "DiscoveRx KinomeScan binding", "conditions": "Entrez MAPK14"}, "BTK": {"target": "T3, BTK (Homo sapiens, UniProt Q06187)", "T3 construct": "purchased DiscoveRx (KINOMEscan scanEDGE panel)", "assay": "DiscoveRx KinomeScan binding"}, "TGFBR1": {"target": "T4, TGFBR1 (Homo sapiens, UniProt P36897)", "T4 construct": "purchased DiscoveRx scanEDGE panel", "T4 sequence (P36897 34-503)": "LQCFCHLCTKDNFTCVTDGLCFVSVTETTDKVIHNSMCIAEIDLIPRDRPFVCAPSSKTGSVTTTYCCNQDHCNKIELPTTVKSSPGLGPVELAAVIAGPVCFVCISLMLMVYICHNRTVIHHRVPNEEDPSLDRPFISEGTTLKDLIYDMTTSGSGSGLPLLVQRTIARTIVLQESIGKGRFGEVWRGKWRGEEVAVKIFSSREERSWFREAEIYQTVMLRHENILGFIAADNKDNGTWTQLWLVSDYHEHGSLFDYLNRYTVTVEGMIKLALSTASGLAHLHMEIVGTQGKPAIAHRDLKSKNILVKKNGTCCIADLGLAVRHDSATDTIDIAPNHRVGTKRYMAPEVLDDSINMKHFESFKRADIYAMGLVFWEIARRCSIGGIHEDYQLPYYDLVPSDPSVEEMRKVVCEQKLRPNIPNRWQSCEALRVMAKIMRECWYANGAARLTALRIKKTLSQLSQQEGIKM", "assay": "DiscoveRx KinomeScan binding"}, "KIT(D816V)": {"target": "T5, KIT(D816V) (Homo sapiens, UniProt P10721, D816V)", "T5 construct": "purchased DiscoveRx scanEDGE panel (KinomeScan)", "assay": "DiscoveRx KinomeScan binding"}, "RET": {"target": "T6, RET (Homo sapiens, UniProt P07949)", "T6 construct": "purchased DiscoveRx scanEDGE panel", "T6 sequence (P07949 29-1114)": "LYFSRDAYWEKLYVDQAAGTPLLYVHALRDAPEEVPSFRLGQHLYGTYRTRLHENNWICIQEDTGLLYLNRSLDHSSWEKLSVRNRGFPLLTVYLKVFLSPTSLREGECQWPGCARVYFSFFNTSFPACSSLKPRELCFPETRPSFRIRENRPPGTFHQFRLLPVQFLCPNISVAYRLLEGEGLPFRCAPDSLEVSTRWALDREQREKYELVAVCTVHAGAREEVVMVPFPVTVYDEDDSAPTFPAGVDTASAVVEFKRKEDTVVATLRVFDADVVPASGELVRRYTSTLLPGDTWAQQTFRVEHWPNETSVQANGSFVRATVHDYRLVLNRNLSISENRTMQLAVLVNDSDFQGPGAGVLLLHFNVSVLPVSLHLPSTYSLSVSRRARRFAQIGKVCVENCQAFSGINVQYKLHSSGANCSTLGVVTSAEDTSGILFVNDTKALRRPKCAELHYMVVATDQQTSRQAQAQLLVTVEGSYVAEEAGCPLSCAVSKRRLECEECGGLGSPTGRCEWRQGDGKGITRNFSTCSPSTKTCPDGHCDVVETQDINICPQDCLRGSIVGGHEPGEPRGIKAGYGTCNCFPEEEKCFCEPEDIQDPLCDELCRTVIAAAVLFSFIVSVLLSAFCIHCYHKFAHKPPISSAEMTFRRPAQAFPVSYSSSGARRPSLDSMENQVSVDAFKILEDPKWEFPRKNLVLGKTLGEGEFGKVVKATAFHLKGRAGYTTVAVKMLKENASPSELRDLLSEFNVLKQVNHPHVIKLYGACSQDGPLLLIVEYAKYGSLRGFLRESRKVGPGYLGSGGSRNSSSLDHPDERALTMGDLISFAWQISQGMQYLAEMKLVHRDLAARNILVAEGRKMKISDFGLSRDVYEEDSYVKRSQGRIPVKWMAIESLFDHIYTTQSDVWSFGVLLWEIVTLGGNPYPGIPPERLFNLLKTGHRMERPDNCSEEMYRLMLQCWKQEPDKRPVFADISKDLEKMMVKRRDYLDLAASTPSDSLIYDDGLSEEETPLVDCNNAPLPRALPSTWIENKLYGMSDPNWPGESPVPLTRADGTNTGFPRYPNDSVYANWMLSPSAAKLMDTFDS", "assay": "DiscoveRx KinomeScan binding"}, "MARK3": {"target": "T7, MARK3 (Homo sapiens, UniProt P27448)", "T7 construct": "purchased DiscoveRx scanEDGE panel (KinomeScan)", "assay": "DiscoveRx KinomeScan binding"}, "PLK1": {"target": "T8, PLK1 (Homo sapiens, UniProt P53350)", "T8 construct": "purchased DiscoveRx scanEDGE panel", "assay": "DiscoveRx KinomeScan binding"}, "[1]": {"target": "T9, full-length human aurora-C (Homo sapiens, UniProt Q9UQB9)", "T9 construct": "purchased EMD Millipore KinaseProfiler service", "assay": "In vitro kinase assay (EMD Millipore KinaseProfiler)", "type": "biochemical", "conditions": "10 μM γ-33P-ATP, 30 μM AKRRRLSSLRA, 8 doses in duplicate", "experimental": "(§1) In vitro kinase inhibition assays were then performed as follows. Incorporation of radioactivity from 10 μM γ-^33P-ATP was measured across 8 doses in duplicate by the EMD Millipore KinaseProfiler service (Billerica, Mass.) under published standard conditions with […]. Full-length human aurora-A was assayed with 200 μM LRRASLG (Kemptide); full-length human aurora-B with 30 μM […] (SEQ ID NO:5); and full-length human aurora-C with 30 μM […] (SEQ ID NO:6). IC50 values were modeled using least-squares and variable slope with Prism 6.0 software (GraphPad, San Diego, Calif.)."}, "[2]": {"target": "T10, full-length human aurora-A (Homo sapiens, UniProt O14965)", "T10 construct": "Full-length human aurora-A was assayed; purchased EMD Millipore KinaseProfiler service", "assay": "In vitro kinase assay (EMD Millipore KinaseProfiler)", "type": "biochemical", "conditions": "10 μM γ-33P-ATP, 200 μM Kemptide, 8 doses in duplicate", "experimental": "as §1"}, "[3]": {"target": "T11, full-length human aurora-B (Homo sapiens, UniProt Q96GD4)", "T11 construct": "purchased EMD Millipore KinaseProfiler service", "assay": "In vitro kinase assay (EMD Millipore KinaseProfiler)", "type": "biochemical", "conditions": "10 μM γ-33P-ATP, 30 μM AKRRRLSSLRA, 8 doses in duplicate", "experimental": "as §1"}, "IKK---alpha": {"target": "T12, IKK---alpha (Homo sapiens, UniProt O15111)", "T12 construct": "purchased DiscoveRx scanEDGE panel", "assay": "DiscoveRx KinomeScan binding", "conditions": "Entrez CHUK"}, "MAP3K4": {"target": "T13, MAP3K4 (Homo sapiens, UniProt Q9Y6R4)", "T13 construct": "purchased DiscoveRx scanEDGE panel (KinomeScan)", "assay": "DiscoveRx KinomeScan binding"}, "ACVR1B": {"target": "T14, ACVR1B (Homo sapiens, UniProt P36896)", "T14 construct": "purchased DiscoveRx (KINOMEscan scanEDGE panel)", "T14 sequence (P36896 24-505)": "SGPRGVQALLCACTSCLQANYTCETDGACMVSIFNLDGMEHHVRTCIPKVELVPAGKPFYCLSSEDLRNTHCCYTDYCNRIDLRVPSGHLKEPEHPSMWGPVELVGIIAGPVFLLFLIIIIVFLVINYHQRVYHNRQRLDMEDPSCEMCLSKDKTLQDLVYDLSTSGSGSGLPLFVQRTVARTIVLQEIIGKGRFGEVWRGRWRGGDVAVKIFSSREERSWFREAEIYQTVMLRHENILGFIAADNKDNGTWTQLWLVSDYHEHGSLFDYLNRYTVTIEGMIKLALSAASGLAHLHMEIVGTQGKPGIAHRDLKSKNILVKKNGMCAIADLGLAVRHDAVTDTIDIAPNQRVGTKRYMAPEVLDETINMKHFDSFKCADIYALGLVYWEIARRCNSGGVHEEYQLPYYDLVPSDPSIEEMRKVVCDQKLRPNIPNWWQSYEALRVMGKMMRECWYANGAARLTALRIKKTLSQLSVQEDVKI", "assay": "DiscoveRx KinomeScan binding"}, "MEK2": {"target": "T15, MEK2 (Homo sapiens, UniProt P36507)", "T15 construct": "purchased DiscoveRx scanEDGE panel (KinomeScan)", "assay": "DiscoveRx KinomeScan binding", "conditions": "Entrez MAP2K2"}, "CDK3": {"target": "T16, CDK3 (Homo sapiens, UniProt Q00526)", "T16 construct": "purchased DiscoveRx (KINOMEscan scanEDGE panel)", "assay": "DiscoveRx KinomeScan binding"}, "CSNK1D": {"target": "T17, CSNK1D (Homo sapiens, UniProt P48730)", "T17 construct": "purchased DiscoveRx scanEDGE panel", "assay": "DiscoveRx KinomeScan binding"}, "ROCK2": {"target": "T18, ROCK2 (Homo sapiens, UniProt O75116)", "T18 construct": "purchased DiscoveRx scanEDGE panel", "assay": "DiscoveRx KinomeScan binding"}, "HCT-116 cells": {"system": "HCT-116 cells", "assay": "DNA content by propidium iodide flow cytometry", "type": "cell-based", "conditions": "10 μM, 24 hours or 48 hours", "experimental": "In addition, HCT-116 cells were treated with 10 μM of DMSO, or the Aurora Kinase Inhibitors barasertib, GSK1070916, MLN8054, BRD-7880, or tozasertib. 24 hours or 48 hours following treatment, cells were stained with propidium iodide and DNA content per cell was assessed using a Becton Dickinson LSR II flow cytometer."}, "AURKA": {"target": "T19, AURKA (Homo sapiens, UniProt O14965)", "T19 construct": "purchased DiscoveRx (KINOMEscan scanEDGE panel)", "assay": "DiscoveRx KinomeScan binding"}, "PAK2": {"target": "T20, PAK2 (Homo sapiens, UniProt Q13177)", "T20 construct": "purchased DiscoveRx scanEDGE panel (KinomeScan)", "assay": "DiscoveRx KinomeScan binding"}, "AKT2": {"target": "T21, AKT2 (Homo sapiens, UniProt P31751)", "T21 construct": "purchased DiscoveRx (KINOMEscan scanEDGE panel)", "assay": "DiscoveRx KinomeScan binding"}, "MKNK2": {"target": "T22, MKNK2 (Homo sapiens, UniProt Q9HBH9)", "T22 construct": "purchased DiscoveRx scanEDGE panel (KinomeScan)", "assay": "DiscoveRx KinomeScan binding"}, "AURKC": {"target": "T23, AURKC (Homo sapiens, UniProt Q9UQB9)", "T23 construct": "purchased DiscoveRx (KINOMEscan; added to the scanEDGE panel)", "assay": "DiscoveRx KinomeScan binding"}, "BRAF(V600E)": {"target": "T24, BRAF(V600E) (Homo sapiens, UniProt P15056, V600E)", "T24 construct": "purchased DiscoveRx (KINOMEscan scanEDGE panel)", "assay": "DiscoveRx KinomeScan binding"}, "BMPR2": {"target": "T25, BMPR2 (Homo sapiens, UniProt Q13873)", "T25 construct": "purchased DiscoveRx (KINOMEscan scanEDGE panel)", "T25 sequence (Q13873 27-1038)": "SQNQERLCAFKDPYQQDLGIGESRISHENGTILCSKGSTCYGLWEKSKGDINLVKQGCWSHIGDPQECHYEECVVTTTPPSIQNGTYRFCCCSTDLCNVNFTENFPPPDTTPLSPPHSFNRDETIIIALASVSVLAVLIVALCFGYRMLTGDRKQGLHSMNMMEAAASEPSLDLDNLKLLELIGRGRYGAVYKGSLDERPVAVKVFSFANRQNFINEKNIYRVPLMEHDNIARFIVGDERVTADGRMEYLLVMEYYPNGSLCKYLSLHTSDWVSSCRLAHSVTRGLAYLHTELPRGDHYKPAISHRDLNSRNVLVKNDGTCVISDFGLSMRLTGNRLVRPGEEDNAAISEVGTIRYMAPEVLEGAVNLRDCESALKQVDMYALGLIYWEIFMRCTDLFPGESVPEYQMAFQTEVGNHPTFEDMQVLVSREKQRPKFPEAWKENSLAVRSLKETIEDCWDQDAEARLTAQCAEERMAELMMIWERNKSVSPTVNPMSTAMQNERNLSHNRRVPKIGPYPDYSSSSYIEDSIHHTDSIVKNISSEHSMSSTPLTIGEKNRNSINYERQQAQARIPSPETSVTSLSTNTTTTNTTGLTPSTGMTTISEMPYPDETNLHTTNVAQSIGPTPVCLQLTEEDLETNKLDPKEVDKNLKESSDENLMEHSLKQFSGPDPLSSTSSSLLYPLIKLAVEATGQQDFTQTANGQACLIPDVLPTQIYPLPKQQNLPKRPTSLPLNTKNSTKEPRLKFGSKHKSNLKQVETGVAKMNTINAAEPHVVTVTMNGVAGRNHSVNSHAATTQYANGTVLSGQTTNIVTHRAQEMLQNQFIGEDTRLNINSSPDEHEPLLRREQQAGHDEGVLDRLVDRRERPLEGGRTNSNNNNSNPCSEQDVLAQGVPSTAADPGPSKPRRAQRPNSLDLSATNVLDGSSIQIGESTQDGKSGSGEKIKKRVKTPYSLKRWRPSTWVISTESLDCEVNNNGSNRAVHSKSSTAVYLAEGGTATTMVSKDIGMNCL", "assay": "DiscoveRx KinomeScan binding"}, "CSF1R": {"target": "T26, CSF1R (Homo sapiens, UniProt P07333)", "T26 construct": "purchased DiscoveRx scanEDGE panel", "assay": "DiscoveRx KinomeScan binding"}, "PDPK1": {"target": "T27, PDPK1 (Homo sapiens, UniProt O15530)", "T27 construct": "purchased DiscoveRx scanEDGE panel (KinomeScan)", "assay": "DiscoveRx KinomeScan binding"}, "INSR": {"target": "T28, INSR (Homo sapiens, UniProt P06213)", "T28 construct": "purchased DiscoveRx scanEDGE panel", "T28 sequence (P06213 28-1382)": "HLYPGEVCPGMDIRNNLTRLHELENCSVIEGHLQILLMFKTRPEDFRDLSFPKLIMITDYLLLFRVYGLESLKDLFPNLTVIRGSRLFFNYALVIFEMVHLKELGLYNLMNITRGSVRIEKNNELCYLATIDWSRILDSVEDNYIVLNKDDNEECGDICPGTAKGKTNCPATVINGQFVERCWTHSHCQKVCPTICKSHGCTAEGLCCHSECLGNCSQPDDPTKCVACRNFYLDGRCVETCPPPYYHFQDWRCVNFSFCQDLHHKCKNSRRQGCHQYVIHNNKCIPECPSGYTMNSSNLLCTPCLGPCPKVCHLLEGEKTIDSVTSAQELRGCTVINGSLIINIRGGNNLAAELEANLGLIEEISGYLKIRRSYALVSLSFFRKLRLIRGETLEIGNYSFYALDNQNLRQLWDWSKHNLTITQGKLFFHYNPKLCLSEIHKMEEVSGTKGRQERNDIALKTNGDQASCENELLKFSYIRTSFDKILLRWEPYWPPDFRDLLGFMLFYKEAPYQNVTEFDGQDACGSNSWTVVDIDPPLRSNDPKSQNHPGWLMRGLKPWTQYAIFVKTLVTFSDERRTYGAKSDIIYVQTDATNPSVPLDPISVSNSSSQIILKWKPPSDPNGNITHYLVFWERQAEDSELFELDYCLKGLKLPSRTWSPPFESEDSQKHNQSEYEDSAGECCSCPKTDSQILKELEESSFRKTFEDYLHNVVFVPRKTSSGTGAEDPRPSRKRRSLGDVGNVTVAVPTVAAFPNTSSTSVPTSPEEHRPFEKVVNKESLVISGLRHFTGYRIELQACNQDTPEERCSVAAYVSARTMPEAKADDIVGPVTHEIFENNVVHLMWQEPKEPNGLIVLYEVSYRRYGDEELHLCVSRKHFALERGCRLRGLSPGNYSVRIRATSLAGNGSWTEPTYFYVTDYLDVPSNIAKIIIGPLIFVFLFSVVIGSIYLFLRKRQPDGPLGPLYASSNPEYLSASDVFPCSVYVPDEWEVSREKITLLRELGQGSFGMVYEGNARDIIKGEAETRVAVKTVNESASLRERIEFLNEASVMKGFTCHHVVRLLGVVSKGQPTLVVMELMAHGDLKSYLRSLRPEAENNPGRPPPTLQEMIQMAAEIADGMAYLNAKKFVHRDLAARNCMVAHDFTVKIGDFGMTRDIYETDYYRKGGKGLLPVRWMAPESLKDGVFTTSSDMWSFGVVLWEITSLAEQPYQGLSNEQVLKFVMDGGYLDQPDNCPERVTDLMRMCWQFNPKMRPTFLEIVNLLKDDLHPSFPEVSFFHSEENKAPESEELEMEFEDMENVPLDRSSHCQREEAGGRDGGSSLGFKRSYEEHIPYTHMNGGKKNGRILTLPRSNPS", "assay": "DiscoveRx KinomeScan binding"}, "CDK2": {"target": "T29, CDK2 (Homo sapiens, UniProt P24941)", "T29 construct": "purchased DiscoveRx (KINOMEscan scanEDGE panel)", "assay": "DiscoveRx KinomeScan binding"}, "AKT1": {"target": "T30, AKT1 (Homo sapiens, UniProt P31749)", "T30 construct": "purchased DiscoveRx (KINOMEscan scanEDGE panel)", "T30 sequence (P31749 whole entry)": "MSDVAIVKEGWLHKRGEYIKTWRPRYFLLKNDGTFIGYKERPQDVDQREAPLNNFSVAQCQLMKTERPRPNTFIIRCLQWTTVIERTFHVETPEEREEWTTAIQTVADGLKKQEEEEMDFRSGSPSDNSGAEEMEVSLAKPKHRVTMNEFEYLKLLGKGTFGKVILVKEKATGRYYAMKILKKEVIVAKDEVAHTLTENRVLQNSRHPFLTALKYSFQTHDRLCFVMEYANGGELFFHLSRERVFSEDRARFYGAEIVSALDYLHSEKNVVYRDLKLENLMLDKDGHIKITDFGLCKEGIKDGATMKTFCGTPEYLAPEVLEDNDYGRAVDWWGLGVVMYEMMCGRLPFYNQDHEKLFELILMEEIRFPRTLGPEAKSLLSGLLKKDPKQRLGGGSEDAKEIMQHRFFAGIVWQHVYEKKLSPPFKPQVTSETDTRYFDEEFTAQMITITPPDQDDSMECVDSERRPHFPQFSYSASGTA", "assay": "DiscoveRx KinomeScan binding"}},
  "data": [
    {"smiles": "COc1ccc(NC(=O)Nc2ccc3c(c2)C(=O)N([C@@H](C)CO)C[C@H](C)[C@H](CN(C)Cc2ccc4c(c2)OCO4)O3)cc1", "note": "[BRD-7880]", "values": [
      {"measurement": "Percent Control", "setting": "PAK4", "result": 100, "unit": "%"},
      {"measurement": "Percent Control", "setting": "p38---alpha", "result": 93, "unit": "%"},
      {"measurement": "Percent Control", "setting": "BTK", "result": 94, "unit": "%"},
      {"measurement": "Percent Control", "setting": "TGFBR1", "result": 100, "unit": "%"},
      {"measurement": "Percent Control", "setting": "KIT(D816V)", "result": 72, "unit": "%"},
      {"measurement": "Percent Control", "setting": "RET", "result": 100, "unit": "%"},
      {"measurement": "Percent Control", "setting": "MARK3", "result": 100, "unit": "%"},
      {"measurement": "Percent Control", "setting": "PLK1", "result": 39, "unit": "%"},
      {"measurement": "IC50", "setting": "[1]", "result": 12, "unit": "nM"},
      {"measurement": "IC50", "setting": "[2]", "result": 2150, "unit": "nM"},
      {"measurement": "IC50", "setting": "[3]", "result": 7, "unit": "nM"},
      {"measurement": "Percent Control", "setting": "IKK---alpha", "result": 58, "unit": "%"},
      {"measurement": "Percent Control", "setting": "MAP3K4", "result": 86, "unit": "%"},
      {"measurement": "Percent Control", "setting": "ACVR1B", "result": 84, "unit": "%"},
      {"measurement": "Percent Control", "setting": "MEK2", "result": 73, "unit": "%"},
      {"measurement": "Percent Control", "setting": "CDK3", "result": 76, "unit": "%"},
      {"measurement": "Percent Control", "setting": "CSNK1D", "result": 100, "unit": "%"},
      {"measurement": "Percent Control", "setting": "ROCK2", "result": 100, "unit": "%"},
      {"measurement": "DNA content per cell", "setting": "HCT-116 cells", "result": "increased DNA content"},
      {"measurement": "binding to aurora kinase A", "setting": "AURKA", "result": "25 % of control"},
      {"measurement": "Percent Control", "setting": "AURKA; AURKA", "result": 22, "unit": "%"},
      {"measurement": "Percent Control", "setting": "PAK2", "result": 69, "unit": "%"},
      {"measurement": "Percent Control", "setting": "AKT2", "result": 80, "unit": "%"},
      {"measurement": "Percent Control", "setting": "MKNK2", "result": 77, "unit": "%"},
      {"measurement": "binding to aurora kinase C", "setting": "AURKC", "result": "3 % of control"},
      {"measurement": "Percent Control", "setting": "AURKC; AURKC", "result": 3, "unit": "%"},
      {"measurement": "Percent Control", "setting": "BRAF(V600E)", "result": 65, "unit": "%"},
      {"measurement": "Percent Control", "setting": "BMPR2", "result": 100, "unit": "%"},
      {"measurement": "Percent Control", "setting": "CSF1R", "result": 100, "unit": "%"},
      {"measurement": "Percent Control", "setting": "PDPK1", "result": 48, "unit": "%"},
      {"measurement": "Percent Control", "setting": "INSR", "result": 36, "unit": "%"},
      {"measurement": "Percent Control", "setting": "CDK2", "result": 100, "unit": "%"},
      {"measurement": "Percent Control", "setting": "AKT1", "result": 87, "unit": "%"}
    ]}
  ]
}
